Values after ≈ are worked out from the molar mass of the structure shown.
What was measured:
[1] = tested on: K. pneumoniae ATCC BAA-2146; test: MIC, agar plate dilution method, K. pneumoniae ATCC BAA-2146; type: cell-based, Klebsiella pneumoniae; details: for MIC: Klebsiella pneumoniae, ATCCBAA2146, K. pneumoniae ATCC BAA-2146, NDM-producing strain, read-out: minimal inhibitory concentration (MIC)
Description: (§1) As for the representative compounds of a new aminoglycoside antibiotic of the present invention described in Examples, the minimal inhibitory concentration (MIC, μg/mL) was measured for various assay strains of bacteria using an agar plate dilution method in accordance with the method described in the Japan Society of Chemotherapy.

S. aureus RN4220 = test: MIC, agar plate dilution method, S. aureus RN4220; type: cell-based, Staphylococcus aureus; details: for MIC: Staphylococcus aureus, RN4220, S. aureus RN4220, Sensitive bacterium, read-out: minimal inhibitory concentration (MIC)
Description: as §1

S. marcescens GN6944 = test: MIC, agar plate dilution method, S. marcescens GN6944; type: cell-based, Serratia marcescens; details: S. marcescens GN6944, GM-resistant; for MIC: Serratia marcescens, read-out: minimal inhibitory concentration (MIC)
Description: as §1

S. aureus MF490 = test: MIC, agar plate dilution method, S. aureus MF490; type: cell-based, Staphylococcus aureus; details: for MIC: Staphylococcus aureus, MRSA, read-out: minimal inhibitory concentration (MIC)
Description: as §1

[2] = tested on: K. pneumoniae ATCC BAA-1705; test: MIC, agar plate dilution method, K. pneumoniae ATCC BAA-1705; type: cell-based, Klebsiella pneumoniae; details: for MIC: Klebsiella pneumoniae, ATCCBAA1705, K. pneumoniae ATCC BAA-1705, KPC-producing strain, read-out: minimal inhibitory concentration (MIC)
Description: as §1

P. aeruginosa MSC01035 = test: MIC, agar plate dilution method, P. aeruginosa MSC01035; type: cell-based, Pseudomonas aeruginosa; details: P. aeruginosa MSC01035, ABK-resistant; for MIC: Pseudomonas aeruginosa, read-out: minimal inhibitory concentration (MIC)
Description: as §1

E. faecium ATCC19434 = test: MIC, agar plate dilution method, E. faecium ATCC19434; type: cell-based, Enterococcus faecium; details: for MIC: Enterococcus faecium, ATCC19434, E. faecium ATCC19434, read-out: minimal inhibitory concentration (MIC)
Description: as §1

E. coli JM109/pMW218 = test: MIC, agar plate dilution method, E. coli JM109/pMW218; type: cell-based, Escherichia coli; details: for MIC: Escherichia coli, JM109/PMW218, E. coli JM109/pMW218, Sensitive bacterium, read-out: minimal inhibitory concentration (MIC)
Description: as §1

S. aureus RN4220/pMS520 = test: MIC, agar plate dilution method, S. aureus RN4220/pMS520; type: cell-based, Staphylococcus aureus; details: for MIC: Staphylococcus aureus, MRSA, read-out: minimal inhibitory concentration (MIC), S. aureus RN4220/pMS520, MRSA
Description: as §1

P. aeruginosa PAO1 = test: MIC, agar plate dilution method, P. aeruginosa PAO1; type: cell-based, Pseudomonas aeruginosa; details: for MIC: Pseudomonas aeruginosa, PAO1, P. aeruginosa PAO1, Sensitive bacterium, read-out: minimal inhibitory concentration (MIC)
Description: as §1

S. marcescens TH-0447 = test: MIC, agar plate dilution method, S. marcescens TH-0447; type: cell-based, Serratia marcescens; details: for MIC: Serratia marcescens, TH0447, S. marcescens TH-0447, AMK-resistant, read-out: minimal inhibitory concentration (MIC)
Description: as §1

P. aeruginosa PAO1/GN315 = test: MIC, agar plate dilution method, P. aeruginosa PAO1/GN315; type: cell-based, Pseudomonas aeruginosa; details: for MIC: Pseudomonas aeruginosa, read-out: minimal inhibitory concentration (MIC), P. aeruginosa PAO1/GN315, AMK-resistant
Description: as §1

P. aeruginosa MSC17707 = test: MIC, agar plate dilution method, P. aeruginosa MSC17707; type: cell-based, Pseudomonas aeruginosa; details: for MIC: Pseudomonas aeruginosa, MSC17707, P. aeruginosa MSC17707, AMK-resistant, read-out: minimal inhibitory concentration (MIC)
Description: as §1

[3] = tested on: A. baumannii ATCC BAA-1710; test: MIC, agar plate dilution method, A. baumannii ATCC BAA-1710; type: cell-based, Acinetobacter baumannii; details: for MIC: Acinetobacter baumannii, ATCCBAA1710, A. baumannii ATCC BAA-1710, MDRA, read-out: minimal inhibitory concentration (MIC)
Description: as §1

Row | Compound | MIC [1] [µg/mL] | MIC (S. aureus RN4220) [µg/mL] | MIC (S. marcescens GN6944) [µg/mL] | MIC (S. aureus MF490) [µg/mL] | MIC [2] [µg/mL] | MIC (P. aeruginosa MSC01035) [µg/mL] | MIC (E. faecium ATCC19434) [µg/mL] | MIC (E. coli JM109/pMW218) [µg/mL] | MIC (S. aureus RN4220/pMS520) [µg/mL] | MIC (P. aeruginosa PAO1) [µg/mL] | MIC (S. marcescens TH-0447) [µg/mL] | MIC (P. aeruginosa PAO1/GN315) [µg/mL] | MIC (P. aeruginosa MSC17707) [µg/mL] | MIC [3] [µg/mL] | other results
1 | NCC[C@H](O)C(=O)N[C@@H]1C[C@H](N)[C@@H](O[C@H]2O[C@H](CN)[C@@H](O)[C@H](O)[C@H]2O)[C@H](O)[C@H]1O[C@H]1O[C@H](CO)[C@@H](O)[C@H](N)[C@H]1O [AMK, amikacin, reference compound] | > 64 | 2 (≈ 3.42 µM) | 8 (≈ 13.7 µM) | > 64 | 32 (≈ 54.6 µM) | > 64 | 32 (≈ 54.6 µM) | 0.5 (≈ 0.854 µM) | 64 (≈ 109 µM) | 2 (≈ 3.42 µM) | > 64 | 64 (≈ 109 µM) | 32 (≈ 54.6 µM) | 64 (≈ 109 µM) | –
2 | CNC1C(O[C@H]2OC(CO)[C@@H](NCCCN)[C@H](O)C2O)O[C@H]2CC(N)[C@@H](O[C@@H]3C(N)C[C@@H](N)C(O)[C@H]3O)OC2C1O (stereo partly shown) [Compound A4-b, 4″-N-(3-aminopropyl)apramycin] | 2 (≈ 3.35 µM) | 4 (≈ 6.7 µM) | 8 (≈ 13.4 µM) | 8 (≈ 13.4 µM) | 2 (≈ 3.35 µM) | 8 (≈ 13.4 µM) | 16 (≈ 26.8 µM) | 2 (≈ 3.35 µM) | 4 (≈ 6.7 µM) | 4 (≈ 6.7 µM) | 8 (≈ 13.4 µM) | 8 (≈ 13.4 µM) | 8 (≈ 13.4 µM) | 8 (≈ 13.4 µM) | –
3 | CNC1C(O[C@H]2OC(CO)[C@@H](NCCCN)[C@H](O)C2O)O[C@H]2CC(N)[C@@H](O[C@@H]3C(N)C[C@@H](N)C(O)[C@H]3O)OC2C1O (stereo partly shown) [Compound S1-h, 4″-N-(3-aminopropyl)-5-epiapramycin] | – | – | – | – | – | – | – | – | – | – | – | – | – | – | minimal inhibitory concentration (MIC) ([1]; K. pneumoniae ATCC BAA-2146, NDM-producing strain): 1 µg/mL (≈ 1.68 µM); minimal inhibitory concentration (MIC) (S. aureus RN4220; S. aureus RN4220, Sensitive bacterium): 2 µg/mL (≈ 3.35 µM); minimal inhibitory concentration (MIC) (S. marcescens GN6944): 8 µg/mL (≈ 13.4 µM); minimal inhibitory concentration (MIC) (S. aureus MF490; S. aureus MF490, MRSA): 8 µg/mL (≈ 13.4 µM); minimal inhibitory concentration (MIC) ([2]; K. pneumoniae ATCC BAA-1705, KPC-producing strain): 2 µg/mL (≈ 3.35 µM); minimal inhibitory concentration (MIC) (P. aeruginosa MSC01035): 8 µg/mL (≈ 13.4 µM); minimal inhibitory concentration (MIC) (E. faecium ATCC19434; E. faecium ATCC19434): 16 µg/mL (≈ 26.8 µM); minimal inhibitory concentration (MIC) (E. coli JM109/pMW218; E. coli JM109/pMW218, Sensitive bacterium): 1 µg/mL (≈ 1.68 µM); minimal inhibitory concentration (MIC) (S. aureus RN4220/pMS520; S. aureus RN4220/pMS520, MRSA): 2 µg/mL (≈ 3.35 µM); minimal inhibitory concentration (MIC) (P. aeruginosa PAO1; P. aeruginosa PAO1, Sensitive bacterium): 4 µg/mL (≈ 6.7 µM); minimal inhibitory concentration (MIC) (S. marcescens TH-0447; S. marcescens TH-0447, AMK-resistant): 8 µg/mL (≈ 13.4 µM); minimal inhibitory concentration (MIC) (P. aeruginosa PAO1/GN315; P. aeruginosa PAO1/GN315, AMK-resistant): 4 µg/mL (≈ 6.7 µM); minimal inhibitory concentration (MIC) (P. aeruginosa MSC17707; P. aeruginosa MSC17707, AMK-resistant): 4 µg/mL (≈ 6.7 µM); minimal inhibitory concentration (MIC) ([3]; A. baumannii ATCC BAA-1710, MDRA): 8 µg/mL (≈ 13.4 µM)
4 | CNC1C(O[C@H]2OC(CO)[C@@H](N(CCN)CCN)[C@H](O)C2O)O[C@H]2CC(N)[C@@H](O[C@@H]3C(N)C[C@@H](N)C(O)[C@H]3O)OC2C1O (stereo partly shown) [Compound A4-e, 4″-N,N-bis(2-aminoethyl)apramycin] | 2 (≈ 3.2 µM) | 2 (≈ 3.2 µM) | 8 (≈ 12.8 µM) | 4 (≈ 6.39 µM) | 2 (≈ 3.2 µM) | 8 (≈ 12.8 µM) | 16 (≈ 25.6 µM) | 1 (≈ 1.6 µM) | 2 (≈ 3.2 µM) | 4 (≈ 6.39 µM) | 8 (≈ 12.8 µM) | 4 (≈ 6.39 µM) | 8 (≈ 12.8 µM) | 4 (≈ 6.39 µM) | –
5 | CNC1C(O[C@H]2OC(C)[C@@H](NC(CN)CN)[C@H](O)C2O)O[C@H]2CC(N)[C@@H](O[C@H]3CC(O)[C@H](N)CC3N)OC2C1O (stereo partly shown) [Compound S1-p, 4″-N-(1,3-diaminopropan-2-yl)-5,6″-dideoxyapramycin] | 1 (≈ 1.73 µM) | 1 (≈ 1.73 µM) | 4 (≈ 6.9 µM) | 2 (≈ 3.45 µM) | 1 (≈ 1.73 µM) | 4 (≈ 6.9 µM) | 4 (≈ 6.9 µM) | 1 (≈ 1.73 µM) | 1 (≈ 1.73 µM) | 2 (≈ 3.45 µM) | 8 (≈ 13.8 µM) | 4 (≈ 6.9 µM) | 4 (≈ 6.9 µM) | 8 (≈ 13.8 µM) | –
